Data taken from patent US20100144700A1, “HETEROCYCLIC-CARBONYL-DIAZABICYCLOALKANES AS MODULATORS OF THE NEURONAL NICOTINIC ACETYLCHOLINE ALPHA 4 BETA 2, SUBTYPE RECEPTOR FOR THE TREATMENT OF CNS RELATED DISORDERS” (TARGACEPT, INC., priority 2007, published 2010).

Assay: NOR (novel object recognition) task in rats
Format: in vivo, rat
Conditions: treated orally, 0.03 mg/kg
Description: FIG. 1 is a chart showing the results of a study on object recognition in rats treated orally with (1S,5S)-3-(5-bromofuran-2-ylcarbonyl)-3,6-diazabicyclo[3.2.1]octane. The results are shown as a function of recognition index (%) versus dose (mg/kg).
Certain exemplified compounds were assessed in the NOR (novel object recognition) task. Thus, (1S,5S)-3-(5-bromofuran-2-ylcarbonyl)-3,6-diazabicyclo[3.2.1]octane (FIG. 1) was active in NOR in rats, at 0.03 mg/kg. This provides evidence of the efficacy (and potency) of the compounds of the present invention in treating cognitive deficits, attentional disorders and dementias, and the potential of these compounds for human therapy.

In the case of `O=C(c1ccc(Br)o1)N1C[C@@H]2CN[C@@H](C2)C1` [(1S,5S)-3-(5-bromofuran-2-ylcarbonyl)-3,6-diazabicyclo[3.2.1]octane], the “activity in NOR (recognition index)” value was “active”.
